Earlier results as cited in US9636304B2, “Pharmaceutical composition comprising citrate and bicarbonate salts, and use thereof for treating cystinuria” (ADVICENNE, priority 2010, dated 2017).

Settings: prior art, oral

## O=C([O-])CC(O)(CC(=O)[O-])C(=O)[O-].[K+].[K+].[K+] [potassium citrate]
  gastric tolerance: mediocre
